The text below walks through data of DBAASP.

Holding throughout (assay): ≥ marks a high value that may be exact or a test limit, other limits are often not marked, values filed in µg/mL are converted to µM
In assay [1] the test system is Staphylococcus aureus CGMCC 1.8721.
Assay [2] relates to Staphylococcus epidermidis CGMCC 1.4260.
For assay [3], the system named is Bacillus subtilis CGMCC 1.3376.
For assay [4], the system named is Pseudomonas aeruginosa CGMCC 1.2421.
Assay [5] concerns Escherichia coli CGMCC 1.8732.
Assay [6] relates to Klebsiella pneumoniae CGMCC 1.1736.
The subject of assay [7] is Saccharomyces cerevisiae SZMC 0644.
For assay [8], the system named is Candida krusei CBS 573.
Assay [9] concerns Candida albicans ATCC 10231.
The subject of assay [10] is Candida parapsilosis CBS 604.
The test system of assay [11] is Staphylococcus aureus 5118.
Assay [12] relates to Staphylococcus aureus E4049.
The subject of assay [13] is Staphylococcus aureus ATCC 9144.
Assay [14] concerns Acinetobacter baumannii Q12-0809.
The subject of assay [15] is Pseudomonas aeruginosa PAO1.
For assay [16], the system named is Salmonella typhimurium SL1344.
Assay [17] has as its system Acinetobacter baumannii Q13-0717.
The test system of assay [18] is Klebsiella pneumoniae NCTC 13442.
Assay [19] concerns Staphylococcus aureus ATCC 29213.
The test system of assay [20] is Listeria monocytogenes NCTC 11994.
Assay [21] deals with Pseudomonas aeruginosa Q12-0535.
The test system of assay [22] is Pseudomonas aeruginosa Q14-0890.
Assay [23] deals with Campylobacter jejuni NCTC 11351.
The subject of assay [24] is Campylobacter jejuni.
In assay [25] the test system is Acinetobacter baumannii Q12-0867.
Assay [26] deals with Klebsiella pneumoniae ATCC 700603.
Assay [27] concerns Escherichia coli K-12.
Assay [28] concerns Staphylococcus aureus MRSA-15.
In assay [29] the test system is Staphylococcus aureus Q14-0320.
Assay [30] relates to Pseudomonas aeruginosa ATCC 27853.
Assay [31] relates to Pseudomonas aeruginosa Q12-0581.
Assay [32] concerns Klebsiella pneumoniae Q14-0095.
Assay [33] deals with Staphylococcus aureus RN4220.
In assay [34] the test system is Pseudomonas aeruginosa Q14-0208.
Assay [35] concerns Escherichia coli.
For assay [36], the system named is Enterococcus faecalis JH-2-2.
Assay [37] relates to Staphylococcus aureus NCTC 12493.
The subject of assay [38] is Staphylococcus aureus Q14-0325.

SMILES strings stand for the structures. ≈ marks a conversion by molar mass, not a printed value.

Take `CC[C@H](C)[C@H](NC(=O)[C@H](C)N)C(=O)NCC(=O)N[C@@H](CO)C(=O)N[C@H](C(=O)N[C@@H](CC(C)C)C(=O)NCC(=O)N[C@@H](C)C(=O)N[C@@H](CC(C)C)C(=O)N[C@@H](C)C(=O)N[C@@H](CCCCN)C(=O)NCC(=O)N[C@@H](CC(C)C)C(=O)N1CCC[C@H]1C(=O)N[C@H](C(=O)N[C@@H](CC(C)C)C(=O)N[C@@H](CCCCN)C(=O)N[C@@H](CO)C(=O)N[C@@H](Cc1c[nH]c2ccccc12)C(=O)N[C@H](C(=O)N[C@@H](CCCCN)C(=O)N[C@@H](CC(N)=O)C(=O)N[C@@H](CCCN=C(N)N)C(N)=O)[C@@H](C)CC)[C@@H](C)O)[C@@H](C)CC` [AIGSILGALAKGLPTLKSWIKNR]: the MIC in assay [1] was no less than 50 µM; in [2], 12.5 µM (≈ 30.1 µg/mL); in assay [3] it was 6.25 µM (≈ 15 µg/mL); in assay [4], 25 µM (≈ 60.2 µg/mL); in [5] it was 25 µM (≈ 60.2 µg/mL); in assay [6], no less than 50 µM.
As to `NCCCC[C@H](NC(=O)CNC(=O)[C@H](CCCCN)NC(=O)[C@H](CC(N)=O)NC(=O)[C@@H]1CSSC[C@H](N)C(=O)N1)C(=O)N[C@@H](CC(N)=O)C(=O)N[C@@H](CCCCN)C(=O)NCC(=O)N[C@@H](CO)C(=O)N[C@@H](Cc1cnc[nH]1)C(=O)O` [CCNKGKNKGSH], the MIC is no less than 42.5 µM in assay [7], no less than 42.5 µM in assay [8], 42.5 µM (≈ 49.9 µg/mL) in assay [9] and no less than 42.5 µM in [10].
On to `CSCC[C@H](NC(=O)[C@H](C)NC(=O)[C@H](C)NC(=O)CNC(=O)[C@H](CCCN=C(N)N)NC(=O)[C@H](CC(=O)O)NC(=O)[C@@H](N)CC(=O)O)C(=O)N[C@@H](Cc1ccccc1)C(=O)N[C@@H](C)C(=O)N[C@H](C(=O)N[C@@H](CC(C)C)C(=O)N[C@@H](Cc1ccccc1)C(=O)N[C@@H](CC(N)=O)C(=O)N[C@@H](C)C(=O)N[C@@H](Cc1ccccc1)C(=O)N[C@@H](CO)C(=O)N[C@@H](CO)C(=O)N[C@@H](CC(C)C)C(=O)N[C@@H](CC(C)C)C(=O)N[C@@H](CCC(=O)O)C(=O)O)C(C)C` [DDRGAAMFAVLFNAFSSLLE], for which the MIC in assay [11] was 2.3 µM (≈ 5 µg/mL); in assay [12], 7.82 µM (≈ 17 µg/mL); in assay [13], no less than 280 µM.
As to `CC[C@H](C)[C@H](NC(=O)[C@H](Cc1ccccc1)NC(=O)[C@H](Cc1ccc(O)cc1)NC(=O)[C@@H](NC(=O)[C@H](CCCCN)NC(=O)[C@H](CC(C)C)NC(=O)[C@@H](NC(=O)[C@H](CCCCN)NC(=O)[C@@H](NC(=O)[C@@H](N)CO)[C@@H](C)CC)[C@@H](C)CC)[C@@H](C)CC)C(=O)N[C@@H](CCC(N)=O)C(=O)NCC(=O)N[C@@H](CCCCN)C(=O)N[C@@H](CCCN=C(N)N)C(=O)N[C@@H](Cc1cnc[nH]1)C(=O)N[C@@H](Cc1c[nH]c2ccccc12)C(=O)N[C@@H](CO)C(=O)N[C@@H](Cc1ccccc1)C(=O)O` [SIKILKIYFIQGKRHWSF], the MIC in assay [14] was no less than 56.5 µM; in assay [15], 226 µM (≈ 512 µg/mL); in [16], no less than 226 µM; in assay [17], 28.3 µM (≈ 64 µg/mL); in assay [18] it was no less than 56.5 µM; in assay [19] it was 14.1 µM (≈ 32 µg/mL). The MIC in [20] is no less than 113 µM; in assay [21], no less than 56.5 µM; in [22] it was 7.06 µM (≈ 16 µg/mL); in [23], no less than 56.5 µM; in assay [24], no less than 56.5 µM; in [25] it was 14.1 µM (≈ 32 µg/mL). For the same molecule, the MIC in [26] was 56.5 µM (≈ 128 µg/mL); in assay [27], no less than 113 µM; in [28], no less than 110 µM; in assay [29] it was 28.3 µM (≈ 64 µg/mL); in [30], greater than 56.5 µM; in [31], 14.1 µM (≈ 32 µg/mL). Further, the MIC in assay [32] is no less than 56.5 µM; in assay [33] it was no less than 113 µM; in assay [34], 28.3 µM (≈ 64 µg/mL); in assay [35], greater than 56.5 µM; in assay [36] it was no less than 113 µM; in [37], 14.1 µM (≈ 32 µg/mL). Further, the MIC in assay [38] was 14.1 µM (≈ 32 µg/mL).

By MIC is commonly meant the least concentration at which growth counts as inhibited.
